Reference: paper PMC8831520, “Small molecule SWELL1 complex induction improves glycemic control and nonalcoholic fatty liver disease in murine Type 2 diabetes” (Nature Communications, 2022)

Tested on: T1, SWELL1 protein in 3T3-F442A adipocytes
T1 construct: host or cells: 3T3-F442A preadipocytes and differentiated adipocytes (wild type)
Experiment: SWELL1 protein western blot in adipocytes
Assay type: cell-based, murine
Conditions: for SWELL1 protein level relative to vehicle-treated controls: 10 and 1 μM, 4 days, then 6 h serum starving
Procedure: In the case of 3T3-F442A adipocytes, the WT and KO cells were treated with either vehicle (DMSO), 1 or 10 µM SN-40X (after 7–11 days of differentiation) for 96 h and then stimulated with 0 and 10 nM insulin/serum-containing media with vehicle (DMSO) or SN-40X for 15 min for SWELL1 detection. […] To simulate glucolipotoxicity, 8 mM sodium palmitate was dissolved in 18.4% fatty-acid free BSA at 37 °C in DMEM medium with 25 mM glucose to obtain a conjugation ratio of 1:3 palmitate:BSA[80].
Adipocytes were washed twice in ice-cold phosphate buffer saline and lysed in RIPA buffer (150 mM NaCl, 20 mM HEPES, 1% NP-40, 5 mM EDTA, pH 7.4) with proteinase/phosphatase inhibitors (Roche). The cell lysate was further sonicated in 10 s cycle intervals 2–3 times and centrifuged at 18,407×g for 30 min at 4 °C and repeated one more time to remove the excess fat. The supernatant was collected and further estimated for protein concentration using a DC protein assay kit (Bio-Rad). Fat and liver tissues were homogenized and suspended in RIPA buffer with inhibitors and further processed in a similar fashion as described above. HUVECs were also prepared in a similar fashion except the lysates were spun only once to remove the cells debris to obtain the clear supernatant. For islets, either human or mouse islets were washed twice with phosphate buffer saline (PBS) and lysed using RIPA buffer containing protease and phosphatase inhibitors. The lysate was further clarified by freezing in liquid nitrogen for about 10 s for three cycles. The supernatant was collected from the whole lysate centrifuged at 16,260×g for 20 min at 4 °C. […] For soleus muscle, the tissue was homogenized in a Bullet Blender homogenizer (Speed-9, Time-3 mins) in 8 volumes of ice-cold muscle homogenization buffer (50 mM Tris, 25 mM NaCl, 0.2% Nonidet P-40, 5 mM EGTA, 2.5 mM EDTA, 20 mM NaF, 20 mM Na4P2O7·10H2O, 2 mM Na3VO4, pH 7.4) supplemented with protease/phosphatase inhibitor (Roche). The homogenized lysate was centrifuged two times at 18,500×g for 20 min at 4 °C and supernatant was collected for protein estimation. Protein samples were further prepared by boiling in 2X or 4X Laemmli buffer. Approximately 10–60 µg of total protein was loaded in 4–15% gradient gel (Bio-Rad) for separation and protein transfer was carried out onto the PVDF membranes (Bio-Rad). Membranes were blocked in 5% BSA (or 5% milk for SWELL1) in TBST buffer (0.2 M Tris, 1.37 M NaCl, 0.2% Tween-20, pH 7.4) for 1 h and incubated with appropriate primary antibodies (5% BSA or milk) overnight at 4 °C. […] The images were further analyzed for band intensities using ImageJ software. […]

| Structure (SMILES) | SWELL1 protein level relative to vehicle-treated controls | SWELL1 protein expression (3T3-F442A adipocytes, 10 µM, 96 h) |
| --- | --- | --- |
| CCCCC1(C2CCCC2)Cc2cc(OCC(=O)O)c(Cl)c(Cl)c2C1=O (stereo not drawn) [Inactive 1, 2-((2-butyl-6,7-dichloro-2-cyclopentyl-1-oxo-2,3-dihydro-1H-inden-5-yl)oxy)acetic acid] | did not significantly increase | – |
| CCCCC1(C2CCCC2)Cc2cc(OCCCC(=O)O)c(Cl)c(Cl)c2C1=O (stereo not drawn) [SN-401, 4-((2-butyl-6,7-dichloro-2-cyclopentyl-1-oxo-2,3-dihydro-1H-inden-5-yl)oxy)butanoic acid] | – | 1.5 fold control expression |
| CCCCC1(C2CCCC2)Cc2cc(OCCCCCC(=O)O)c(Cl)c(Cl)c2C1=O (stereo not drawn) [SN-406, 6-((2-butyl-6,7-dichloro-2-cyclopentyl-1-oxo-2,3-dihydro-1H-inden-5-yl)oxy)hexanoic acid] | 1.5–2.1 fold | – |
